Measured values: publication PMC4801399, “Impact of a CXCL12/CXCR4 Antagonist in Bleomycin (BLM) Induced Pulmonary Fibrosis and Carbon Tetrachloride (CCl4) Induced Hepatic Fibrosis in Mice” (PLoS ONE, 2016)
Read-outs that look alike come from different tables or passages of the source.

Experiments:
[1] = AMD070 PK study via IP injection: plasma, lung and liver concentration; format: in vivo, C57BL/6 mice; conditions: IP 400 μg/mouse; for concentration at 6 h: six hours post administration; for Kp: C57BL/6, read-out: Tissue AUC/Plasma AUC
Protocol: At each endpoint, animals were euthanized with CO2 and blood collected via cardiac puncture. An aliquot was set aside at room temperature for hematology measurements with remaining blood processed for plasma for drug concentration determination. Lungs and livers were also collected and immediately frozen on dry ice and stored at -70°C until determination of drug concentration. AMD070 concentrations in mouse plasma were determined using protein precipitation extraction followed by UPLC-MS/MS analysis. Briefly, 100 μL aliquots of plasma were transferred to individual wells of an Isolute PPT+ (Biotage) array plate containing 300 μL of 0.1% formic acid (FA) in acetonitrile (ACN). […] The sample residue was then reconstituted into 200 μL of 0.1/5/95 FA/ACN/H2O (v/v/v) and analyzed using reverse phase chromatography (gradient elution) combined with multiple reaction monitoring acquisition (MRM). The mobile phases consisted of 0.1% FA in H2O and 0.1% FA in ACN. AMD070 was extracted from lung and liver tissue by homogenization under basic conditions followed by liquid-liquid extraction in tert-butyl methyl ether (TBME) and ethyl acetate respectively. In summary, 50 mg of lung or liver tissue pieces were cut, weighed, and transferred to homogenization tubes. 25 μL of deionized water for lung and 10 μL for liver were added to each tube, followed by the addition of zirconium (Zr) homogenization beads. The samples were homogenized for approximately 20 seconds in the BeadBeater, followed by 1 minute of centrifugation at room temperature at 13,520 rcf. 200 μL of 1 N NaOH was then transferred to each tube, followed by a second homogenization/centrifugation cycle as described above. […] The dried residue was reconstituted into 0.1/5/95 TFA/ACN/H2O and analyzed using reverse phase chromatography (gradient elution) combined with MRM acquisition in positive electrospray mode (ES+). The mobile phases consisted of 0.1% TFA in H2O and 0.1% TFA in ACN.

[2] = system: CCl4-induced hepatic fibrosis; experiment: CCl4-induced murine model of hepatic fibrosis; format: in vivo, C57BL/6 mice
Description: Hepatic fibrosis was induced in eleven week old female C57BL/6 mice from JAX Labs. Animals were randomly divided into three groups: oil plus vehicle (PBS) control, CCl4 plus vehicle (PBS) control and CCl4 plus AMD070. As some animals were euthanized prior to study completion because they had reached a humane endpoint, final group numbers were n = 9 for oil plus vehicle (PBS) control, n = 6 for CCl4 plus vehicle (PBS) control and n = 7 for CCl4 plus AMD070 groups. […] Starting one day prior to the initial CCl4 treatment (day -1), dosing with either AMD070 reconstituted in PBS (50 mg/kg) or PBS vehicle control (10 mL/kg) was administered IP and continued 5 days/week for 4 weeks. Specifically, AMD070 or PBS treatments were not performed on the 2 days/week on which animals were given CCl4 (or olive oil vehicle control). One day after the last AMD070 or PBS treatment, animals were euthanized with CO2.
Livers were perfused with PBS then 10% formalin and the left top lobe preserved in 10% neutral buffer formalin (NBF) for a week. The fixed liver was embedded in paraffin, six cross sections at 500 μm apart generated and stained with Picrosirius Red. For quantitation of percent hepatic fibrosis, fibrotic area (Picrosirius Red) was divided by total liver area and multiplying by 100. Three histology slides/animal were analyzed. The three slides corresponded to one slide from each of the alternative six cross sections. These analyses were performed with Olympus cellSens and the analyst was blinded to sample identity.
The top right lobe of livers were homogenized in 1 mL of Trizol (Invitrogen) and flash frozen in dry ice and stored in -80°C for RNA isolation to perform RT-qPCR. Total RNA was isolated and cDNA prepared using the High Capacity cDNA Reverse Transcription kit according to the manufacturer’s instructions (Life Technologies). RT-qPCR was carried out as previously described using the standard curve method. The following primer/probe sets were used to detect: Acta2 (IDT Assay–N007392.1), Probe- 5’-/56-FAM/TTACAGAGC/ZEN/CCAGAGCCATTGTCG/3IABkFQ/3’, Primer 1–5’-[…]-3’, Primer 2: 5’-[…]-3’; Col1a1 (Life Technologies custom primer/probe mix), primer 1–5’-[…], primer 2–5’- […], probe- 5’-FAM-ACACCGGAACTTGGG-MGBNFQ; Tbp (Life Technologies custom primer/probe mix), Primer 1–5’-[…], Primer 2–5’-TGGCTCCTGTGCACACCAT, Probe- 5’-FAM-CGTTGATTTTCAGTTCTGG-MGBNFQ; Gapdh (IDT Assay–Mm.PT.39a.1), probe- 5’-/56-FAM/TGCAAATGG/ZEN/CAGCCCTGGTG/3IABkFQ/3’, primer 1–5’-AATGGTGAAGGTCGGTGTG-3’, primer 2–5’-[…]-3’.
Five μL of serum was used with the AST Activity Assay Kit (Sigma MAK055) as per manufacturer’s instructions to determine serum AST levels.

[3] = RT-qPCR relative to Gapdh and Tbp, CCl4 plus AMD070 vs CCl4 plus PBS

Compound NCCCCN(Cc1nc2ccccc2[nH]1)[C@H]1CCCc2cccnc21 [AMD070] has a Cmax ([1]; C57BL/6, 400 ug, Liver) of 14300 ng/g, a Tmax ([1]; C57BL/6, 400 ug, Liver) of 30 min and a Cmax ([1]; C57BL/6, 400 ug, Lung) of 6140 ng/g. It also gave a Tmax ([1]; C57BL/6, 400 ug, Lung) of 30 min, a Cmax ([1]; C57BL/6, 400 ug, Plasma) of 770 ng/mL and a Tmax ([1]; C57BL/6, 400 ug, Plasma) of 30 min. The AUC ([1]; C57BL/6, 400 ug, Plasma, read-out: AUC (all time points)) was 1240 ng·h/mL, the concentration at 6 h ([1]; C57BL/6, liver, read-out: liver concentration) was 6470 ng/g and the concentration at 6 h ([1]; C57BL/6, lung, read-out: lung concentration) was 3740 ng/g. It also gave a concentration at 6 h ([1]; C57BL/6, plasma, read-out: plasma concentration) of 45 ng/mL, a Kp ([1]; Liver) of 90.7 and a Kp ([1]; Lung) of 61.2. The “liver concentration (peak)” value ([1]; 30 minutes post administration) was 14.3 µg/g, the “lung concentration (peak)” value ([1]; 30 minutes post administration) was 6.14 µg/g and the “plasma concentration (peak)” value ([1]; 30 minutes post administration) was 770 ng/mL. For the same compound, the “percent liver fibrosis (Picrosirius red staining)” value ([2]; CCl4 plus AMD070 50 mg/kg IP 5 days/week for 4 weeks, group average, CCl4 plus PBS 3.2%) was 3.6%, the “mortality rate between groups” value ([2]; CCl4 plus AMD070 50 mg/kg IP vs control groups) was “no difference” and the “liver Acta2 (αSma) relative transcription level” value [2, 3] was “not different”. For the same compound, the “liver Col1a1 relative transcription level” value [2, 3] was “not different” and the “serum AST levels” value ([2]; after 4 weeks, CCl4 plus AMD070 vs CCl4 plus vehicle control) was “no difference”.
